Assay results as given in patent US8754079B2, “Cycloalkyl containing thienopyrimidines for pharmaceutical compositions” (Boehringer Ingelheim International GmbH, priority 2010, dated 2014).

Molecular target: T1, MNK2 (Homo sapiens, UniProt Q9HBH9)
T1 construct: the open reading frames of human Mnk1 and Mnk2a were amplified from cDNA; made in house; host or cells: E. coli BL21
Test: Mnk2a in vitro kinase assay (indirect fluorescence polarization)
Assay type: biochemical
Conditions: pre-activated GST-Mnk2a 2.5 nM, 20 μM ATP, 30 μM substrate peptide
In short: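 Human GST-Mnk2a was expressed in E. coli and activated in vitro with 150 nM pre-activated ERK2 and 50 μM ATP in HEPES pH 7.4/MgCl2 buffer (45 min, 30 °C). Activity on an eIF4E Ser209-derived 12mer peptide was read by competitive fluorescence polarization with a phospho-specific antibody.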

T1 sequence (Q9HBH9 whole entry): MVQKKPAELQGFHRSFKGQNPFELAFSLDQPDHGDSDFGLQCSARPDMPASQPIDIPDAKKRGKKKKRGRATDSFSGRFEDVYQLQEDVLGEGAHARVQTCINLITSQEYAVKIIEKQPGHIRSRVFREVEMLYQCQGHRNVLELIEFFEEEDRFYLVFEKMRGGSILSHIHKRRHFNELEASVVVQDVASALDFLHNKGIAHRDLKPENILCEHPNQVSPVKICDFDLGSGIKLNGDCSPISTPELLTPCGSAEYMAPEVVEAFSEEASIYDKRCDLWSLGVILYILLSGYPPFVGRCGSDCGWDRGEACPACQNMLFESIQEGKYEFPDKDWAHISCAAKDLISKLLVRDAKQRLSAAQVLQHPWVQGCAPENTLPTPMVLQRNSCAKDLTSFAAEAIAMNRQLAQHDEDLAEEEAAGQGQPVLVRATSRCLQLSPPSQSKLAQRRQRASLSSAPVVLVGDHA

| SMILES | IC50 |
| --- | --- |
| COC(=O)c1sc2ncnc(Nc3ccc(F)cc3O[C@@H]3CCCC[C@@H]3O)c2c1C (single isomer, unassigned) [Example 256, 4-[4-fluoro-2-(cis-2-hydroxy-cyclohexyloxy)-phenylamino]-5-methyl-thieno[2,3-d]pyrimidine-6-carboxylic acid methyl ester] | 1290 nM |
| CO[C@@H]1CCC[C@@H](Oc2ncccc2Nc2ncnc3sc(C(=O)NC4CCN(C)CC4)c(C)c23)C1 (racemic) [Example 144] | 89 nM |
| CC(=O)N[C@H]1C[C@H](Oc2cc(F)ccc2Nc2ncnc3sc(C(=O)NCCCN4CCCC4)c(C)c23)C1 [Example 39] | 61 nM |
| Cc1c(C(=O)NCC#CCN)sc2ncnc(Nc3ccc(F)cc3O[C@@H]3CCC[C@@H](O)C3)c12 (racemic) [Example 60] | 14 nM |
| Cc1c(C(=O)NC2CC2N)sc2ncnc(Nc3ccc(F)cc3OC3CCCC(O)C3)c12 (mixture of isomers) [Example 59] | 34 nM |
| Cc1c(C(=O)NCCCN2CCCC2)sc2ncnc(Nc3ccc(F)cc3O[C@H]3CCC[C@H](O)C3)c12 [Example 75] | 18 nM |
| Cc1c(C(=O)NCCCN(C)C)sc2ncnc(Nc3ccc(F)cc3OC3CCC(O)C3)c12 (stereo not shown) [Example 226, N-(3-(dimethylamino)propyl)-4-(4-fluoro-2-(3-hydroxycyclopentyloxy)phenylamino)-5-methylthieno[2,3-d]pyrimidine-6-carboxamide] | 10 nM |
| CO[C@H]1CC[C@H](Oc2cc(F)ccc2Nc2ncnc3sc(C(=O)NCCCN4CCCC4=O)c(C)c23)CC1 [Example 279] | 11 nM |
| CC(=O)N[C@H]1CC[C@H](Oc2cc(F)ccc2Nc2ncnc3sc(C(=O)NCCO)c(C)c23)C1 [Example 231, 4-[2-((1S,3S)-3-Acetylamino-cyclopentyloxy)-4-fluoro-phenylamino]-5-methyl-thieno[2,3-d]pyrimidine-6-carboxylic acid (2-hydroxy-ethyl)-amide] | 14 nM |
| Cc1c(C(=O)NCCCN2CCC2)sc2ncnc(Nc3cccnc3O[C@H]3CC[C@H](O)CC3)c12 [Example 270] | 58 nM |
| Cc1c(C(N)=O)sc2ncnc(Nc3ccc(F)cc3O[C@H]3CC[C@@H](N(C)S(C)(=O)=O)CC3)c12 [Example 9, 4-(4-Fluoro-2-(cis-4-(N-methylmethylsulfonamido)cyclohexyloxy)phenylamino)-5-methylthieno[2,3-d]pyrimidine-6-carboxamide] | 5900 nM |
| Cc1c(C(=O)NCCN2CCCCC2)sc2ncnc(Nc3ccc(F)cc3O[C@H]3CC[C@H](O)CC3)c12 [Example 170] | 19 nM |
| CO[C@H]1CC[C@H](Oc2cc(F)ccc2Nc2ncnc3sc(C(=O)NCCCO)c(C)c23)CC1 [Example 195] | 19 nM |
| CO[C@@H]1CCC[C@@H](Oc2ncccc2Nc2ncnc3sc(C(=O)NCCO)c(C)c23)C1 (relative stereo) [Example 143] | 77 nM |
| COC(=O)c1sc2ncnc(Nc3cccnc3O[C@@H]3CCC[C@H](OC)C3)c2c1C (racemic) [Example 110.1, Racemic 4-[2-((cis)-3-Methoxy-cyclohexyloxy)-pyridin-3-ylamino]-5-methyl-thieno[2,3-d]pyrimidine-6-carboxylic acid methylester] | 9 nM |
| Cc1c(C(N)=O)sc2ncnc(Nc3ccc(F)cc3O[C@@H]3CC[C@@H](O)[C@H]3O)c12 (relative stereo) [Example 221] | 10 nM |
| CNC(=O)CNC(=O)c1sc2ncnc(Nc3ccc(F)cc3O[C@H]3CC[C@H](OC)CC3)c2c1C [Example 188] | 20 nM |
| Cc1c(C(=O)NCc2cn(C)cn2)sc2ncnc(Nc3ccc(F)cc3O[C@H]3CC[C@H](O)CC3)c12 [Example 174] | 10 nM |
| COC1CCCC(Oc2cc(F)ccc2Nc2ncnc3sc(C(=O)NCC4CNCCO4)c(C)c23)C1 (mixture of isomers) [Example 83] | 53 nM |

| SMILES | IC50 |
| --- | --- |
| CCNC(=O)c1sc2ncnc(Nc3ccc(F)cc3O[C@@H]3CCC[C@@H](O)C3)c2c1C (racemic) [Example 78] | 25 nM |
| CO[C@H]1CCC[C@@H](Oc2cc(F)ccc2Nc2ncnc3sc(C(=O)N[C@H]4CC[C@H](O)CC4)c(C)c23)C1 (racemic) [Example 100] | 34 nM |
| COC1CCCC(Oc2cc(F)ccc2Nc2ncnc3sc(C(=O)NC4CCN(C)CC4)c(C)c23)C1 (stereo not shown) [Example 86] | 93 nM |
| CO[C@H]1CC[C@H](Oc2cc(F)ccc2Nc2ncnc3sc(C(=O)NCC#N)c(C)c23)CC1 [Example 182] | 15 nM |
| COC1CCCC(Oc2cc(F)ccc2Nc2ncnc3sc(C(=O)NC4CC4N)c(C)c23)C1 (stereo not shown) [Example 90] | 34 nM |
| CO[C@H]1CCC[C@@H](Oc2cc(F)ccc2Nc2ncnc3sc(C(=O)NCc4cnco4)c(C)c23)C1 (racemic) [Example 93] | 16 nM |
| CNC(=O)c1sc2ncnc(Nc3ccc(F)cc3O[C@H]3CC[C@H](NC(C)=O)C3)c2c1C [Example 235] | 6 nM |
| CO[C@H]1CCC[C@@H](Oc2cc(F)ccc2Nc2ncnc3sc(C(=O)NCCCN4CCCC4)c(C)c23)C1 (racemic) [Example 106] | 22 nM |
| Cc1c(C(N)=O)sc2ncnc(Nc3ccc(F)cc3OC3CCC(O)C3)c12 (stereo not shown) [Example 225, 4-(4-fluoro-2-(3-hydroxycyclopentyloxy)phenylamino)-5-methylthieno[2,3-d]pyrimidine-6-carboxamide] | 6 nM |
| CO[C@H]1CCC[C@@H](Oc2cc(F)ccc2Nc2ncnc3sc(C(=O)NCC#CCN)c(C)c23)C1 (racemic) [Example 91] | 16 nM |
| COC1CCCC(Oc2cc(F)ccc2Nc2ncnc3sc(C(=O)NC4CCN(C)CC4)c(C)c23)C1 (stereo not shown) [Example 102] | 34 nM |
| Cc1c(C(=O)NCCCN(C)C)sc2ncnc(Nc3cccnc3O[C@H]3CC[C@H](O)CC3)c12 [Example 206, 4-[2-(trans-4-Hydroxy-cyclohexyloxy)-pyridin-3-ylamino]-5-methyl-thieno[2,3-d]pyrimidine-6-carboxylic acid (3-dimethylamino-propyl)-amide] | 13 nM |
| CO[C@H]1CC[C@H](Oc2cc(F)ccc2Nc2ncnc3sc(C(=O)NCCCN(CCO)CCO)c(C)c23)CC1 [Example 278] | 7 nM |
| COC1CCCC(Oc2cc(F)ccc2Nc2ncnc3sc(C(=O)NCC4CNCCO4)c(C)c23)C1 (mixture of isomers) [Example 98] | 17 nM |
| CO[C@H]1CCC[C@@H](Oc2cc(F)ccc2Nc2ncnc3sc(C(N)=O)c(C)c23)C1 (racemic) [Example 89, Racemic 4-[4-Fluoro-2-((cis)-3-methoxy-cyclohexyloxy)-phenylamino]-5-methyl-thieno[2,3-d]pyrimidine-6-carboxylic acid amide] | 8 nM |
| Cc1c(C(N)=O)sc2ncnc(Nc3ccc(F)cc3O[C@@H]3C[C@@H]4OC(C)(C)O[C@@H]4C3)c12 [Example 220] | 390 nM |
| Cc1c(C(N)=O)sc2ncnc(Nc3ccc(F)cc3OC3CCCC3)c12 [Example 244, 4-(2-Cyclopentoxy-4-fluoro-phenylamino)-5-methyl-thieno[2,3-d]pyrimidine-6-carboxylic acid amide] | 2 nM |
| CO[C@@H]1CCC[C@@H](Oc2ncccc2Nc2ncnc3sc(C(=O)NCC4CNCCO4)c(C)c23)C1 (relative stereo) [Example 140] | 49 nM |
